Reference: the supplement of paper PMC10307832

Compound: COc1cc(Nc2ncc(F)c(Nc3ccc4c(n3)NC(=O)C(C)(C)O4)n2)cc(OC)c1OC [R406] + COc1cccc2cc(-c3nc([C@H]4CC[C@H](C(=O)O)CC4)n4ncnc(N)c34)[nH]c12 [OSI-027] (partner 0.5 µM)
Experiment: relative viability (nuclei count vs DMSO), 5 days (fraction); higher = more cells survive
Details: first compound 0.8 µM
Summary of the method: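 Lung cancer cell lines in 1536-well plates were dosed by pin tool the day after seeding, either with one drug alone or with a fixed anchor-drug dose plus five library-drug doses (not always all listed) in √10 steps. After 5 days, cells were fixed and their nuclei stained in one step (final 0.05% Triton X-100, 1% formaldehyde, 1 ug/ml Hoechst), then counted on 4× images. Relative viability is the nuclei count in treated wells divided by that in vehicle wells. Values are medians of duplicate plates.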

Row | Cell Line | relative viability
1 | NCI-H2085 | 0.861
2 | HCC-366 | 1.04
3 | NCI-H1666 | 0.88
4 | NCI-H647 | 0.878
5 | LK-2 | 0.186
6 | NCI-H2087 | 0.658
7 | NCI-H358 | 0.893
8 | NCI-H2170 | 0.688
9 | H3255 | 0.651
10 | COR-L23 | 0.995
11 | COR-L 105 | 0.752
12 | LOU-NH91 | 0.651
13 | ChaGo-K-1 | 0.672
14 | NCI-H1793 | 0.303
15 | NCI-H2405 | 0.608
16 | NCI-H1623 | 0.398
17 | NCI-H1563 | 0.831
18 | NCI-H1648 | 0.255

Same assay, conditions: first compound 2.53 µM

Row | Cell Line | relative viability
19 | NCI-H522 | 0.501
20 | NCI-H2342 | 0.61
21 | NCI-H838 | 0.326
22 | NCI-H1650 | 0.132
23 | NCI-H1993 | 0.515
24 | NCI-H441 | 0.255
25 | PC-14 | 0.428
26 | LCLC-103H | 0.362
27 | NCI-H596 | 0.329
28 | NCI-H2126 | 0.606
29 | EMC-BAC-2 | 0.232
30 | NCI-H2085 | 0.259
31 | HCC-366 | 0.0426
32 | NCI-H1666 | 0.829
33 | NCI-H647 | 0.298
34 | LK-2 | 0.149
35 | NCI-H358 | 0.208
36 | NCI-H2170 | 0.415
37 | H3255 | 0.426
38 | COR-L23 | 0.527
39 | COR-L 105 | 0.405
40 | LOU-NH91 | 0.448
41 | ChaGo-K-1 | 0.386
42 | NCI-H1793 | 0.116
43 | NCI-H2405 | 0.556
44 | NCI-H1623 | 0.411
45 | NCI-H1563 | 0.638
46 | NCI-H1648 | 0.249

Same assay, conditions: first compound 8 µM

Row | Cell Line | relative viability
47 | NCI-H522 | 0.593
48 | NCI-H2342 | 0.513
49 | NCI-H838 | 0.167
50 | NCI-H1650 | 0.137
51 | NCI-H1993 | 0.552
52 | NCI-H441 | 0.408
53 | PC-14 | 0.121
54 | LCLC-103H | 0.331
55 | NCI-H596 | 0.269
56 | NCI-H2126 | 0.641
57 | EMC-BAC-2 | 0.203
58 | NCI-H2085 | 0.345
59 | HCC-366 | 0.117
60 | NCI-H1666 | 0.642
61 | NCI-H647 | 0.15
62 | LK-2 | 0.146
63 | NCI-H2087 | 0.499
64 | NCI-H358 | 0.118
65 | NCI-H2170 | 0.648
66 | H3255 | 0.406
